Numbers after ± are expanded uncertainties.
Legend:
[1] = Crystal
[2] = Molar enthalpy of transition or fusion; settings: Crystal; DSC

mass density ([1]; 298.15 K, 101.33 kPa, flotation method): 1242.4 ± 2.6 kg/m3 | Normal melting temperature ([1]; DTA): 93.60 ± 1.1 °C | Molar enthalpy of transition or fusion [2]: 5.77 ± 0.225 kcal/mol
SMILES: Cc1cccc([N+](=O)[O-])c1N [2-methyl-6-nitroaniline]
